One assay relates to central dopaminergic. Particulars: Acta Pharm. Suec. 1983, 111-119; cited from earlier work.
The next assay has as its system α1-adrenergic receptor. The assay is described as follows: α1-adrenergic receptor binding (3H-prazosine, rat cortex). Further details: species or system Hannover Wistar rats. Particulars: for side-effect on the α1 receptors relative to chloropromazine: from IC50 on α1 receptors; for IC50: 3H-prazosine, rat cortex, 23° C., 30 minutes. As for the experimental part:
Hannover Wistar rats were decapitated, their cortex were prepared and homogenized in a 20-fold volume of a buffer solution (50 mmoles of TRIS HCl, at pH 8). The membrane was centrifuged at 45000 g twice for 15 minutes and then suspended in the buffer in a concentration of 30 ml/g (in a protein concentration of 1.7 to 1.8 mg/ml).
After an incubation at 23° C. for 30 minutes, the samples were filtered through a Whatman GF/B filter and washed 4 times with 4 ml of buffer solution each.
For the determination of the non-specific binding, 10 μmoles of phentolamine were used.
(§1) On using both above-mentioned receptor binding methods, a scintillation solution was applied onto the filter paper in the cuvet and the isotopic radioactivity was measured on the next day.

Assay [1] relates to amphetamine group toxicity. The assay is described as follows: Investigation of the amphetamine group toxicity. The assay is classed as in vivo, CFLP mice. Particulars: d-amphetamine 25 mg/kg i.p., 24 hours. As to the method:
(§2) The neuroleptic effect of the compounds was shown by investigations on the central nervous system of Hannover Wistar rats and CFLP mice. The compounds to be tested were orally administered in a dose of 5 ml/kg of body-weight to rats or in a dose of 10 ml/kg of body-weight to mice, respectively at 60 minutes before beginning the experiment.
(§3) The compounds to be tested were suspended in TWEEN 80 and diluted to the desired concentration by adding physiological saline solution.
(§4) The results are expressed either as percentages, or ED50 values calculated by using the probit analysis are given together with the 95% fiducial (confidential) limits (J. T. Litchfield and F. Wilcoxon: J. Pharmacol. 96, 99 (1949)).
The method of C. D. Proctor et al. (Arch. Int. Pharmacodyn. Ther. 163, 74 (1966)) was used for this study.
The examination was carried out on mice of both sexes weighing 22 to 27 g (n=5). At the […], d-amphetamine in a dose of 25 mg/kg was intraperitoneally given to the animals tightly closed together (25 cm^2 /mouse) and the percentage of the perished animals was registered after 24 hours.

For the next assay, the target named is T1, D-2 receptors (Rattus norvegicus, UniProt P61169).
T1 construct: Hannover Wistar rats were decapitated and the striatum from their cortex was prepared; from tissue; host or cells: striatum membranes of Hannover Wistar rats
Put plainly: D-2 receptor binding (3H-spiroperidol, rat striatum). Further details: species or system Hannover Wistar rats. Particulars: for D-2/α1 Selectivity ratio: ratio of IC50 D-2 to IC50 α1. As to the method: Hannover Wistar rats were decapitated and the striatum from their cortex was prepared. The striata were homogenized in a 10-fold volume of a cold buffer solution (50 mmoles of TRIS HCl, 120 mmoles of NaCl, 2 mmoles of KCl, 1 mmoles of MgCl2 and 5 mmoles of CaCl2, at pH 7.4) and centrifuged at 40000 g for 15 minutes. The thus-obtained sediment was suspended in the buffer in a concentration of 100 ml/g (in a protein concentration of 0.7 to 0.8 mg/ml).
After an incubation at 37° C. for 15 minutes, the samples were filtered through a Whatman GF/B filter and washed 2 times with 5 ml of buffer solution each.
For the determination of the non-specific binding, 1 μmole of (+)-butaclamol was used.
as §1

The subject of assay [2] is conditioned avoidance response. Put plainly: Inhibition of the conditioned avoidance response (CAR inhibition). It is filed as in vivo, Hannover Wistar rats. Particulars: Rattus norvegicus, po, 1 h; rats, p.o., 60 minutes before experiment. As to the method: as §2, §3, §4
Male rats weighing 140 to 160 g were conditioned for 10 days in an automated six-channel shuttle box (D. Bovet et. al.: Neuropsychopharmacology, Vol. 2., p. 142 Elsevier Publishing House, Amsterdam, 1961).
Each one session consisted of 6 cycles; the time of a partial cycle was: 15 seconds for intersignal time, 15 seconds for light stimulus, 10 seconds for light stimulus and footshock (0.8 mA). […]

The test system of a further assay is apomorphine hypothermia. Put plainly: Investigation of the apomorphine hypothermia-reverting effect. It is filed as in vivo, Hannover Wistar rats. Particulars: rats, 10 mg/kg p.o., apomorphine 5 mg/kg i.p. As to the method:
as §2, §3, §4
The method of A. Barnett et al. (Arch. Int. Pharmacodyn. Ther. 198, 242 (1972)) was used for this study.
The rectal temperature of rats (n=5) was determined by using an Ellab thermometer (E3) before administering the substances to be tested in a dose of 10 mg/kg. Thereafter, 5 mg/kg of apomorphine were intraperitoneally given and the temperature of the animals was hourly registered for 3 hours.

Another assay has as its system catalepsy. Put plainly: Investigation of the cataleptogenic effect. It is filed as in vivo, Hannover Wistar rats. Conditions: Rattus norvegicus, po; rats, observed hourly for 5 hours. As for the experimental part:
as §2, §3, §4
The method of G. Stille and H. Launer Arzneim.-forsch. 21, 252 (1971) was used for this study.
Male rats weighing 90 to 110 g (n=5) were treated with different doses of the compounds to be tested, then the number of the animals showing catalepsy was hourly observed for 5 hours.

Assay [3] relates to hypermotility induced by L-Dopa. The assay is described as follows: Inhibition of the hypermotility induced by L-Dopa. It is filed as in vivo, CFLP mice. Conditions: mice, 30 mg/kg p.o., nialamide 40 mg/kg and L-Dopa 100 mg/kg i.p., difference from control. As to the method:
as §2, §3, §4
The method of N. P. Plotnikoff et al. ("The Thyroid Axis, Drugs and Behavior", Raven Press, N.Y., pp. 103-113 (1974)) was used for this study.
Male mice (n=15) weighing 18 to 21 g were intraperitoneally treated with 40 mg/kg of nialamide and after 60 minutes, the substances to be tested were administered in a dose of 30 mg/kg. Thirty minutes later, 100 mg/kg of L-Dopa were intraperitoneally administered. The locomotor activity of the animals was measured by using an LKB Animex DSE motimeter in each 30th minute for 2 hours. The results are given as the percentage of the difference from the control.

Another assay has as its system asphyxial anoxia. The assay is described as follows: Investigation of the asphyxial anoxia. The assay is classed as in vivo, CFLP mice. Conditions: Mus musculus, po, 1 h; mice, survival time longer by 30% than control counted as protected. As for the experimental part:
as §2, §3, §4
The method of C. Caillard et al. (Life Sci. 16, 1607 (1975)) was used for this study.
Mice (n=5) of both sexes weighing 22 to 24 g were starved for 16 hours, then treated with 50 mg/kg dose of the substances to be tested. After 60 minutes, the animals were placed in tightly closed glass bottles of 100 ml volume and the survival time was registered.

T1 sequence (P61169 whole entry): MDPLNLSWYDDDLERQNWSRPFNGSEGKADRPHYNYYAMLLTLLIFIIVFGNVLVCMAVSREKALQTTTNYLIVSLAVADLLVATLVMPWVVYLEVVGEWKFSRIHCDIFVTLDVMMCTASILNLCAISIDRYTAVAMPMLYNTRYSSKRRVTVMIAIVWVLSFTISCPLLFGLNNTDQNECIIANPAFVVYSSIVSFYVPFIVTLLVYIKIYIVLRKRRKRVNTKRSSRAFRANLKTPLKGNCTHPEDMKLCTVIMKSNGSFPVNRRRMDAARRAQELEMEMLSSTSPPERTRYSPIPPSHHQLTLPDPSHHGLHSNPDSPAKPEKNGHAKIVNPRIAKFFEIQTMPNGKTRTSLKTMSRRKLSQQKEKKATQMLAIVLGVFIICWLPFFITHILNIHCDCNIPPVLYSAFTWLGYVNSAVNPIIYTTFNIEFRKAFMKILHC

`CN1C[C@H](CO)C=C2c3cccc4[nH]c(Br)c(c34)C[C@H]21` [2-bromolysergol]: the “central dopaminergic agonist activity” value in the assay on central dopaminergic was “inactive”. Further, the “side-effect on the α1 receptors relative to chloropromazine” value in the assay on α1-adrenergic receptor is recorded as “somewhat lower”.

As a reminder, the ED50 is the dose at which the effect has come halfway, by size or by number of responders. By IC50 is commonly meant the concentration that inhibits the measured activity by half. The low end stands for inhibition by little substance, the high end for a need for much substance. On to `CN1C[C@H](CO)C=C2c3cccc4[nH]c(Cl)c(c34)C[C@H]21.O=C(O)/C=C\C(=O)O` [2-Chlorolysergol maleate], for which the ED50 was found to be 28.9 mg/kg in [1] (Mus musculus, po, mice, p.o., read-out: Amphetamine group tox. ED50); 3.4 mg/kg in assay [2]; 13.6 mg/kg with catalepsy; 39.8 mg/kg in the assay on asphyxial anoxia. Moreover, the values for the IC50 at D-2 receptors and at α1-adrenergic receptor were 5.3 nM and 45.4 nM, respectively. Also, on D-2 receptors, the “D-2/α1 Selectivity ratio” value worked out at 0.12. In addition, the “Apomorphine hypothermia, difference of temperature change vs apomorphine (60 min.)” value in the assay on apomorphine hypothermia was “+0.9 °C”. Further, in the assay on apomorphine hypothermia, the “Apomorphine hypothermia, difference of temperature change vs apomorphine (120 min.)” value is “+1.1 °C”. Besides, the “L-Dopa induced hypermot. inhibition % (60 min.)” value in assay [3] is reported as -47%. The “L-Dopa induced hypermot. inhibition % (120 min.)” value in [3] is reported as -50%.

In the case of `CN1C[C@H](CO)C=C2c3cccc4[nH]c(Br)c(c34)C[C@H]21.O=C(O)/C=C\C(=O)O` [2-Bromolysergol maleate], in assay [1] (20 mg/kg p.o.), the “Amphetamine group tox., mice died (footnote *)” value was 10%. On D-2 receptors, the IC50 is 76.5 nM and the “D-2/α1 Selectivity ratio” value was found to be 3.2. For the same molecule, it took a dose of 2.7 mg/kg to reach the 50% effect level in assay [2] (ED50). For the same molecule, in the assay on apomorphine hypothermia, the “Apomorphine hypothermia, difference of temperature change vs apomorphine (60 min.)” value is “+1.9 °C” and the “Apomorphine hypothermia, difference of temperature change vs apomorphine (120 min.)” value is “+2.4 °C”. Besides, the ED50 with catalepsy amounted to 10.8 mg/kg. Also, in [3], the “L-Dopa induced hypermot. inhibition % (60 min.)” value is -60% and the “L-Dopa induced hypermot. inhibition % (120 min.)” value is listed as -65%. The molecule further gave an IC50 at α1-adrenergic receptor of 24.1 nM. In the assay with asphyxial anoxia, this molecule displayed an ED50 of 35.6 mg/kg.

Consider `CN(C)CCCN1c2ccccc2Sc2ccc(Cl)cc21` [Chloropromazine, reference compound], for which, at α1-adrenergic receptor, the IC50 stood at 15.8 nM.

Consider `CCN(CC)C(=O)NC1C=C2c3cccc4[nH]c(Br)c(c34)CC2N(C)C1` (stereo not drawn) [2-Bromolysuride, reference compound], for which, in the assay with catalepsy, the 50% effect level (ED50) was put at a dose of 3.3 mg/kg.

Consider `CN1C[C@H](CO)C=C2c3cccc4[nH]c(Cl)c(c34)C[C@H]21` [2-chlorolysergol], for which, on D-2 receptors, the “D-2/α1 selectivity ratio relative to chloropromazine” value is recorded as “ten times lower”. Moreover, on D-2 receptors (from IC50 on D-2 receptors), the “dopaminergic (D-2) activity relative to chloropromazine” value is listed as “three times as high”. Moreover, the “central dopaminergic agonist activity” value with central dopaminergic was “inactive”. Also, in the assay on α1-adrenergic receptor, the “side-effect on the α1 receptors relative to chloropromazine” value is listed as “one-third”.

These data come from patent publication US4681887A, “Pharmaceutical compositions with a neuroleptic action and process for preparing same” (Richter Gedeon Vegyeszeti Gyar Rt., priority 1985, dated 1987).
